# Patent publication US20240115645A1, “DRUG FOR TREATING UROLITHIASIS-RELATED DISEASE, AND PREPARATION METHOD THEREFOR” (HONG ZHANG, priority 2021, published 2024)
# How the values were obtained:
# [1] = test system: SD rats; test: Serum CRE and BUN levels of urolithiasis model rats; assay type: in vivo, rat; settings: all groups, 4 weeks
# Excerpt: (§1) II. Experimental example of pharmacological activity • 1. Preparation of test samples • (1) High-dose group test sample: the water-extracted, 0-25% ethanol gradient eluent by polyamide column prepared in Preparation Example 5 was concentrated and dried to obtain the active ingredient extract. A solution with a density of about 1.2 g/ml was formulated, and the concentration of the effective substance measured by the pharmacopoeia standard and the absorbance method (using rutin as a standard substance to make a standard curve) is about 130.4 mg/ml. • (2) Medium-dose group test sample: the high-dose group sample was diluted once to obtain the middle-dose group test sample. • (3) Low-dose group test sample: the middle-dose group sample was dilute once to obtain the low-dose group test sample. • (4) Positive control group test sample: potassium sodium hydrogen citrate aqueous solution with a concentration of 100 mg/ml, 3 ml per day, equivalent to 300 mg/d. • 2. Animal experiments • 2.1. Experimental animals and feeding conditions
# (§2) 36 male SD rats of SPF grade, 6-8 weeks old, 200-250 g. • 2.2.3 Model preparation […]
# [2] = test system: SD rats; test: Kidney lesions under HE microscope in rat urolithiasis model (1% ethylene glycol + 2% ammonium chloride); assay type: in vivo; set-up: key to Renal tubule dilation lesions / Renal interstitial inflammatory cell infiltration / Calcium oxalate crystal aggregation: No lesion was represented by −; mild lesion was +; lesion was ++; significant lesion was +++; settings: potassium sodium hydrogen citrate group
# Excerpt: as §1
# 36 male SD rats of SPF grade, 6-8 weeks old, 200-250 g. • 2.2.3 Model preparation
# SD rats were fed adaptively for 7 days, and all groups (except the normal group) were administered 1% ethylene glycol (by drinking water)+2% ammonium chloride (by intragastric administration) 2 ml/rat to establish a model for 28 consecutive days. • 2.2.4 Experimental grouping and processing
# 36 male SD rats were randomly divided into 6 groups according to body weight, 6 rats in each group. These are normal group, model group, potassium sodium hydrogen citrate group, traditional Chinese medicine extract (low, medium, high) dose group. During the modeling process, 3 ml of the drug was administered by intragastric administration every day, and the drug included the positive control drug and the purified part through the polyamide column. The animals were euthanized after 4 weeks. • 2.2.5 Kidney
# The kidney tissues were peeled off in vivo, the kidney on one side was stored in a cryopreservation tube at −80° C. for tissue homogenate to detect Ca2+ concentration, and the kit operation steps were the same as above; the […] kidney on the other side was fixed in formalin solution for tissue sectioning to perform HE staining. • (1) The steps for making paraffin sections were as follows:
# (1) fixation, (2) trimming, (3) dehydration, (4) transparency, (5) wax immersion, (6) embedding, (7) slicing, (8) baking slices, (9) preservation: packed in boxes and stored at room temperature. • (2) HE staining steps were as follows:
# (1) dewaxing and rehydration, (2) dyeing, (3) dehydration, transparency, mounting,
# (4) staining results: the nucleus was blue, the cytoplasm was pink, and the red blood cells were bright red. • 3. Test results • 3.1. Positive test results for calcium oxalate crystals in rat urine
# The results consisted of three parts: calcium oxalate crystal aggregation, renal tubule dilation lesions, and chronic renal interstitial inflammatory cell infiltration.
# [3] = test system: SD rats; test: Ca2+ concentration in serum, urine and kidney tissue of urolithiasis model rats; assay type: in vivo, rat; settings: potassium sodium hydrogen citrate drug group, 300 mg/d
# Excerpt: as §1, §2
# [4] = 100 mg/ml, 3 ml per day (300 mg/d) intragastric, 4 weeks
compound,measurement,setting,value
O.O=C([O-])CC(O)(CC(=O)[O-])C(=O)O.O=C([O-])CC(O)(CC(=O)[O-])C(=O)O.O=C([O-])CC(O)(CC(=O)[O-])C(=O)O.O=C([O-])CC(O)(CC(=O)[O-])C(=O)[O-].O=C([O-])CC(O)(CC(=O)[O-])C(=O)[O-].[K+].[K+].[K+].[K+].[K+].[K+].[Na+].[Na+].[Na+].[Na+].[Na+].[Na+] [potassium sodium hydrogen citrate],"BUN levels in serum, order of groups from high to low",[1],model group>low dose treatment group>potassium sodium hydrogen citrate drug group>medium dose treatment group>high dose treatment group>normal group
same,"CRE levels in serum, order of groups from high to low",[1],model group>medium dose treatment group>potassium sodium hydrogen citrate drug group>low dose treatment group>high dose treatment group>normal group
same,Calcium oxalate crystal aggregation,[2]; [4],++
same,Renal interstitial inflammatory cell infiltration,[2]; [4],+
same,Renal tubule dilation lesions,[2]; [4],++
same,"brownish yellow calcium oxalate crystals under the HE microscope, compared with the model group",[2]; 300 mg/d,did not decrease significantly
same,inflammatory cell infiltration in the renal interstitium under the HE microscope,[2]; 300 mg/d,occasionally seen
same,"renal tubule dilatation under the HE microscope, compared with the model group",[2]; 300 mg/d,improved
same,"Ca2+ concentration in kidney tissue, difference compared with the model group and the normal group",[3],very significant difference (P<0.01)
same,"Ca2+ concentration in kidney tissue, rank among groups",[3],highest concentration
